These are literature values, as cited in patent US20070219192A1, “Certain chemical entities, compositions, and methods” (priority 2005, published 2007).

By GI50 is commonly meant the concentration that inhibits growth by half.

For this data set, the system named is A549 cells. Conditions: data provided by National Cancer Institute, Developmental Therapeutic Program.

Turning to `COc1cccc2c1C(=O)c1c(O)c3c(c(O)c1C2=O)C[C@@](O)(C(=O)CO)C[C@@H]3O[C@H]1C[C@H](N)[C@H](O)[C@H](C)O1` [doxorubicin], the GI50 is 0.063 µM.

Turning to `CC(=O)O[C@H]1C(=O)[C@@]2(C)[C@H]([C@H](OC(=O)c3ccccc3)[C@]3(O)C[C@H](OC(=O)[C@H](O)[C@@H](NC(=O)c4ccccc4)c4ccccc4)C(C)=C1C3(C)C)[C@]1(OC(C)=O)CO[C@@H]1C[C@@H]2O` [paclitaxel], the GI50 is 0.004 µM.

With `O=c1[nH]cc(F)c(=O)[nH]1` [5-fluorouracil], the GI50 is 1 µM.

For the molecule `NC(=O)NO` [hydroxyurea], the concentration for 50% growth inhibition (GI50) is 500 µM.
